Results as given in patent publication US20250115628A1, “FLUORINATED FLUOROPHORES” (HOWARD HUGHES MEDICAL INSTITUTE, priority 2023, published 2025).
“And” between values parts separate entries of the source, which are not always exact repeats. Equal entries are not always repeated. Where two headings read alike, the source gives them in different places.

How the values were obtained:
[1] = General UV-vis and fluorescence spectroscopy; format: physicochemical; details: 10 mM HEPES, pH 7.3
Procedure: Spectroscopy was performed using 1^−cm path length, 3.5^−mL quartz cuvettes or 1^−cm path length, 1.4^−mL semi-micro quartz cuvettes from Starna Cells. All measurements were taken at ambient temperature (22±2° C.). Absorption spectra were recorded on a Cary Model 100 spectrometer (Agilent), and fluorescence spectra were recorded on a Cary Eclipse fluorometer (Varian). The spectra, maximum absorption wavelength (labs), extinction coefficient at λabs (8), and maximum emission wavelength (em) were measured in 10 mM HEPES, pH 7.3 buffer (rhodamines and Malachite Green derivative 49) or 0.1 M NaOH (fluoresceins); the reported values for e are averages (n=3). Normalized spectra are shown for clarity.

[2] = Quantum yield determination; format: physicochemical; details: 10 mM HEPES, pH 7.3
Procedure: All reported absolute fluorescence quantum yield values (Φf) were measured using a Quantaurus-QY spectrometer (model C11374, Hamamatsu). This instrument uses an integrating sphere to determine photons absorbed and emitted by a sample. Measurements were carried out using dilute samples (A<0.1), and self-absorption corrections were performed using the instrument software.^81

[3] = Determination of KL-Z (lactone-zwitterion equilibrium constant); format: physicochemical; design: key: KL-Z = (εdw/εmax)/(1−εdw/εmax); εdw measured in 1:1 dioxane/water; details: 1:1 dioxane:H2O
Procedure: KL-Z was calculated using the following equation:^16, 18 KL-Z=(εdw/εmax)/(1−εdw/εmax). εdw is the extinction coefficient of the dyes in a 1:1 (v/v) dioxane/water solvent mixture; this dioxane/water mixture was chosen to give the maximum spread of KL-Z values across all classes of rhodamines.^18 εmax refers to the maximal extinction coefficients measured in different solvent mixtures empirically determined depending on dye type: 0.1% v/v trifluoroacetic acid in ethanol for 18, 20, 29, 34, 36, 70-72, 81-83, 93-95, 99-102, and 104; 0.1% v/v trifluoroacetic acid in 2,2,2^−trifluoroethanol for all other rhodamine variants. A accurate determination of low KL-Z values is complicated by the relatively poor sensitivity of absorbance measurements.

[4] = rhodamine derivatives; 10 mM HEPES, pH 7.3; data from the inventors' published work; cited from earlier work

CC1CC(C)(C)Nc2cc3c(cc21)C(c1c(F)c(F)c(F)c(F)c1C(=O)O)=c1cc2c(cc1O3)=NC(C)(C)CC2C (mixture of isomers) [compound 18, JF563]
ε ([1]; quinolinyl rhodamines): 125,000 M^−1cm^−1
λabs ([1]; quinolinyl rhodamines): 563 nm
λem ([1]; quinolinyl rhodamines): 581 nm
Φf ([2]; quinolinyl rhodamines): 0.73
KL-Z ([3]; quinolinyl rhodamines): 15.3

[2H]C1([2H])N(c2ccc3c(-c4c(F)c(F)c(F)c(F)c4C(=O)[O-])c4ccc(=[N+]5C([2H])([2H])C([2H])([2H])C([2H])([2H])C5([2H])[2H])cc-4oc3c2)C([2H])([2H])C([2H])([2H])C1([2H])[2H] [compound 8, JFX576]
ε ([1]; rhodamine derivatives): 124,000 M^−1cm^−1
λabs ([1]; rhodamine derivatives): 576 nm
λem ([1]; rhodamine derivatives): 597 nm
Φf ([2]; rhodamine derivatives): 0.71
KL-Z ([3]; rhodamine derivatives): 7.50

CC1=CC(C)(C)N(C)c2cc3c(cc21)C(c1c(F)c(F)c(F)c(F)c1C(=O)[O-])=c1cc2c(cc1O3)=[N+](C)C(C)(C)C=C2C [compound 11, 2,3,4,5^−Tetrafluoro-6^−(1,2,2,4,8,10,10,11^−octamethyl-1,2,10,11-tetrahydropyrano[3,2^−g:5,6^−g]diquinolin-13^−ium-6^−yl)benzoate]
ε ([1]; quinolinyl rhodamines): 121,000 M^−1cm^−1
λabs ([1]; quinolinyl rhodamines): 610 nm
λem ([1]; quinolinyl rhodamines): 630 nm
Φf ([2]; quinolinyl rhodamines): 0.68
KL-Z ([3]; quinolinyl rhodamines): 7.88

O=C([O-])c1c(F)c(F)c(F)c(F)c1-c1c2cc3c(cc2[o+]c2cc4c(cc12)CCCN4)NCCC3 [compound 14, 4,5,6,7^−Tetrafluoro-Q-rhodamine]
ε ([1]; rhodamine derivatives): 118,000 M^−1cm^−1
λabs ([1]; rhodamine derivatives): 558 nm
λem ([1]; rhodamine derivatives): 576 nm
Φf ([2]; rhodamine derivatives): 0.80
KL-Z ([3]; rhodamine derivatives): 8.57

O=C([O-])c1c(F)c(F)c(F)c(F)c1C1=c2cc3c4c(c2Oc2c1cc1c5c2CCCN5CCC1)CCC[N+]=4CCC3 [compound 16, 4,5,6,7^−Tetrafluoro-rhodamine 101]
ε ([1]; rhodamine derivatives): 110,000 M^−1cm^−1
λabs ([1]; rhodamine derivatives): 597 nm
λem ([1]; rhodamine derivatives): 616 nm
Φf ([2]; rhodamine derivatives): 0.67
KL-Z ([3]; rhodamine derivatives): 13.4

CC1=CC(C)(C)Nc2cc3[o+]c4cc5c(cc4c(-c4c(F)c(F)c(F)c(F)c4C(=O)[O-])c3cc21)C(C)=CC(C)(C)N5 [compound 20, 2,3,4,5^−Tetrafluoro-6^−(2,2,4,8,10,10^−hexamethyl-1,2,10,11-tetrahydropyrano[3,2^−g:5,6^−g]diquinolin-13^−ium-6^−yl)benzoate]
ε ([1]; quinolinyl rhodamines): 117,000 M^−1cm^−1
λabs ([1]; quinolinyl rhodamines): 596 nm
λem ([1]; quinolinyl rhodamines): 614 nm
Φf ([2]; quinolinyl rhodamines): 0.64
KL-Z ([3]; quinolinyl rhodamines): 7.65

[2H]C1([2H])N(c2ccc3c(c2)[Si](C)(C)C2=CC(=[N+]4C([2H])([2H])C([2H])([2H])C([2H])([2H])C4([2H])[2H])C=CC2=C3c2c(F)c(F)c(F)c(F)c2C(=O)[O-])C([2H])([2H])C([2H])([2H])C1([2H])[2H] [compound 25, JFX673]
ε ([1]; rhodamine derivatives): 156,000 M^−1cm^−1
λabs ([1]; rhodamine derivatives): 673 nm
λem ([1]; rhodamine derivatives): 690 nm
Φf ([2]; rhodamine derivatives): 0.42
KL-Z ([3]; rhodamine derivatives): 1.56

CCC1=CC2=C(c3c(F)c(F)c(F)c(F)c3C(=O)O)c3cc4c(cc3[Si](C)(C)C2=CC1=NC)NCCC4 [compound 29, 4,5,6,7^−Tetrafluoro-Si-Q-rhodamine]
ε ([1]; rhodamine derivatives): 124,000 M^−1cm^−1
λabs ([1]; rhodamine derivatives): 659 nm and 689 nm
λem ([1]; rhodamine derivatives): 675 nm
Φf ([2]; rhodamine derivatives): 0.25
KL-Z ([3]; rhodamine derivatives): 2.39

CCc1cc2c(c3c1=[N+](C)CCC3)[Si](C)(C)c1c(cc3c4c1CCCN4CCC3)C=2c1c(F)c(F)c(F)c(F)c1C(=O)[O-] [compound 31, JF698]
ε ([1]; rhodamine derivatives): 147,000 M^−1cm^−1
λabs ([1]; rhodamine derivatives): 698 nm
λem ([1]; rhodamine derivatives): 712 nm
Φf ([2]; rhodamine derivatives): 0.28

CC1CC(C)(C)Nc2cc3c(cc21)C(c1c(F)c(F)c(F)c(F)c1C(=O)O)=c1cc2c(cc1[Si]3(C)C)=NC(C)(C)CC2C (centres unmarked) [compound 34, 2,3,4,5^−Tetrafluoro-6^−(2,2,4,8,10,10,13,13^−octamethyl-2,3,4,8,9,10,11,13^−octahydrosilino[3,2^−g:5,6^−g]diquin-olin-6^−ylium-6(1H)-yl)benzoate]
ε ([1]; quinolinyl rhodamines): 129,000 M^−1cm^−1
λabs ([1]; quinolinyl rhodamines): 660 nm
λem ([1]; quinolinyl rhodamines): 676 nm
Φf ([2]; quinolinyl rhodamines): 0.28
KL-Z ([3]; quinolinyl rhodamines): 1.90

CC1=CC(C)(C)Nc2cc3c(cc21)C(c1c(F)c(F)c(F)c(F)c1C(=O)O)=c1cc2c(cc1[Si]3(C)C)=NC(C)(C)C=C2C [compound 36, 2,3,4,5^−Tetrafluoro-6^−(2,2,4,8,10,10,13,13^−octamethyl-2,10,11,13-tetrahydrosilino[3,2^−g:5,6^−g]diquinolin-6^−ylium-6(1H)-yl)benzoate]
ε ([1]; quinolinyl rhodamines): 85,900 M^−1cm^−1
λabs ([1]; quinolinyl rhodamines): 713 nm
λem ([1]; quinolinyl rhodamines): 742 nm
KL-Z ([3]; quinolinyl rhodamines): 1.09

CC1=CC(C)(C)N(C)c2cc3c(cc21)C(c1c(F)c(F)c(F)c(F)c1C(=O)[O-])=c1cc2c(cc1[Si]3(C)C)=[N+](C)C(C)(C)C=C2C [compound 38, 2^−(1,2,2,4,8,10,10,11,13,13^−Decamethyl-2,10,11,13-tetrahydrosilino[3,2^−g:5,6^−g]diquinolin-6^−ylium-6(1H)-yl)-3,4,5,6^−tetrafluorobenzoate]
ε ([1]; quinolinyl rhodamines): 5,700 M^−1cm^−1
λabs ([1]; quinolinyl rhodamines): 754 nm
λem ([1]; quinolinyl rhodamines): 774 nm
KL-Z ([3]; quinolinyl rhodamines): 0.3251

CCC1=CC2=C(c3c(F)c(F)c(F)c(F)c3C(=O)O)c3cc4c(cc3C(C)(C)C2=CC1=NC)NCCC4 [compound 47, 4,5,6,7^−Tetrafluoro-carbo-Q-rhodamine]
ε ([1]; rhodamine derivatives): 124,000 M^−1cm^−1
λabs ([1]; rhodamine derivatives): 621 nm
λem ([1]; rhodamine derivatives): 638 nm
Φf ([2]; rhodamine derivatives): 0.37
KL-Z ([3]; rhodamine derivatives): 10.8

CCc1cc2c(c3c1=[N+](C)CCC3)C(C)(C)c1c(cc3c4c1CCCN4CCC3)C=2c1c(F)c(F)c(F)c(F)c1C(=O)[O-] [compound 57, JF660]
ε ([1]; rhodamine derivatives): 148,000 M^−1cm^−1
λabs ([1]; rhodamine derivatives): 660 nm
λem ([1]; rhodamine derivatives): 673 nm
Φf ([2]; rhodamine derivatives): 0.54
KL-Z ([3]; rhodamine derivatives): 7.55

CCc1cc2c(c3c1=[N+](C)CCC3)C(C)(C)c1cc3c(cc1C=2c1c(F)c(F)c(F)c(F)c1C(=O)[O-])C(C)CC(C)(C)N3CC (centres unmarked) [compound 59, JF657]
ε ([1]; rhodamine derivatives): 137,000 M^−1cm^−1
λabs ([1]; rhodamine derivatives): 657 nm
λem ([1]; rhodamine derivatives): 672 nm
Φf ([2]; rhodamine derivatives): 0.50
KL-Z ([3]; rhodamine derivatives): 4.97

C=C/C=C(C=C)/[N+](C)=C1\C=CC2=C(c3c(F)c(F)c(F)c(F)c3C(=O)[O-])c3ccc(N(C)c4ccccc4)cc3C(C)(C)C2=C1 [compound 65, JQ645]
ε ([1]; rhodamine derivatives): 2,700 M^−1cm^−1
λabs ([1]; rhodamine derivatives): 645 nm
KL-Z ([3]; rhodamine derivatives): 0.344

N=c1ccc2c(-c3c(F)c(F)c(F)c(F)c3C(=O)O)c3ccc(N)cc3oc-2c1 [compound 70, 4,5,6,7^−Tetrafluoro-rhodamine 110]
ε ([1]; rhodamine derivatives): 84,500 M^−1cm^−1
λabs ([1]; rhodamine derivatives): 516 nm
λem ([1]; rhodamine derivatives): 536 nm
Φf ([2]; rhodamine derivatives): 0.64
KL-Z ([3]; rhodamine derivatives): 9.81

CC1(C)C2=CC(=N)C=CC2=C(c2c(F)c(F)c(F)c(F)c2C(=O)O)c2ccc(N)cc21 [compound 71, 4,5,6,7^−Tetrafluoro-carborhodamine 110]
ε ([1]; rhodamine derivatives): 96,400 M^−1cm^−1
λabs ([1]; rhodamine derivatives): 575 nm
λem ([1]; rhodamine derivatives): 597 nm
Φf ([2]; rhodamine derivatives): 0.53
KL-Z ([3]; rhodamine derivatives): 0.832

C[Si]1(C)C2=CC(=N)C=CC2=C(c2c(F)c(F)c(F)c(F)c2C(=O)O)c2ccc(N)cc21 [compound 72, 4,5,6,7^−Tetrafluoro-Si-rhodamine 110]
ε ([1]; rhodamine derivatives): 77,800 M^−1cm^−1
λabs ([1]; rhodamine derivatives): 611 nm
λem ([1]; rhodamine derivatives): 627 nm
Φf ([2]; rhodamine derivatives): 0.42
KL-Z ([3]; rhodamine derivatives): 0.0195

CCC1=CC2=C(c3ccccc3C(=O)O)c3cc4c(cc3C(C)(C)C2=CC1=NC)NCCC4 [compound 94, Carbo-Q-rhodamine]
ε ([1]; rhodamine derivatives): 101,000 M^−1cm^−1
λabs ([1]; rhodamine derivatives): 598 nm
λem ([1]; rhodamine derivatives): 620 nm
Φf ([2]; rhodamine derivatives): 0.51
KL-Z ([3]; rhodamine derivatives): 1.51

CC1=CC(C)(C)Nc2cc3c(cc21)C(c1ccccc1C(=O)O)=c1cc2c(cc1[Si]3(C)C)=NC(C)(C)C=C2C [compound 102, 2^−(2,2,4,8,10,10,13,13-Octamethyl-2,10,11,13-tetrahydrosilino[3,2^−g:5,6^−g]diquinolin-6^−ylium-6(1H)-yl)-benzoate]
ε ([1]; quinolinyl rhodamines): 4,800 M^−1cm^−1
λabs ([1]; quinolinyl rhodamines): 686 nm
λem ([1]; quinolinyl rhodamines): 711 nm
KL-Z ([3]; quinolinyl rhodamines): 0.0143

CC1=CC(C)(C)N(C)c2cc3c(cc21)C(c1ccccc1C(=O)[O-])=c1cc2c(cc1[Si]3(C)C)=[N+](C)C(C)(C)C=C2C [compound 104, 2^−(1,2,2,4,8,10,10,11,13,13^−Decamethyl-2,10,11,13-tetrahydrosilino[3,2^−g:5,6^−g′]diquinolin-6^−ylium-6(1H)-yl)-benzoate]
ε ([1]; quinolinyl rhodamines): 1,200 M^−1cm^−1
λabs ([1]; quinolinyl rhodamines): 720 nm
λem ([1]; quinolinyl rhodamines): 740 nm
KL-Z ([3]; quinolinyl rhodamines): 0.0045

Si-Q-rhodamine [compound 95]
λabs [4]: 637 nm
